Results on two compounds are retold here after patent US20090247465A1, “Novel Use of Bivalirudin in the Treatment of Acute Coronary Syndrome” (priority 2008, published 2009).

Data set [1] deals with patients with moderate and high risk NSTE-ACS. The data set can be described thus: ACUITY analysis: clinical outcomes at 30 days, consistent UFH/enoxaparin plus GP IIb/IIIa inhibitor vs switch to bivalirudin, and antithrombin-naïve patients. The following applies: human, in vivo. From the text:
A total of 4215 patients received prior antithrombin therapy with either UFH or enoxaparin before randomization. Of these, 2137 were randomized to receive the same antithrombin plus a GP IIb/IIIa inhibitor (consistent), while 2078 patients were randomized to receive bivalirudin (switch). There were 2889 patients naïve to antithrombin therapy at randomization, and of these, 1462 patients were randomized to UFH/enoxaparin plus a GP IIb/IIIa inhibitor and 1427 to bivalirudin monotherapy (FIG. 1).
At 30 days, there was no difference in composite ischemia between the two groups: 6.9% for patients switched to bivalirudin vs. 7.4% for patients remaining on consistent UFH/enoxaparin ([RR 0.93; 0.75-1.16], p=0.52). […] Transfusions were also lower in the patients switched to bivalirudin vs. patients remaining on consistent UFH/enoxaparin (1.5% vs. 2.6% [RR 0.60; 0.39-0.92], p=0.02). (Table 2, FIG. 2).
Tables 3a and 3b show clinical outcomes according to type of heparin therapy (UFH or enoxaparin) in patients on prior antithrombin therapy and in patients naive to antithrombin therapy. […]

The test system is the same in data set [2]. The conditions noted are these: ACUITY; bivalirudin monotherapy vs UFH/enoxaparin plus a GP IIb/IIIa inhibitor; cited from earlier work.
For data set [3] the following is noted: in vivo; cited from earlier work.

On to enoxaparin, for which, in data set [1], the “Major bleeding, number of patients” value came to 42 and the “Transfusion, number of patients” value is 19.

In the case of `CC[C@H](C)[C@H](NC(=O)[C@H](CCC(=O)O)NC(=O)[C@H](CCC(=O)O)NC(=O)[C@H](Cc1ccccc1)NC(=O)[C@H](CC(=O)O)NC(=O)CNC(=O)[C@H](CC(N)=O)NC(=O)CNC(=O)CNC(=O)CNC(=O)CNC(=O)[C@@H]1CCCN1C(=O)[C@H](CCCNC(=N)N)NC(=O)[C@@H]1CCCN1C(=O)[C@H](N)Cc1ccccc1)C(=O)N1CCC[C@H]1C(=O)N[C@@H](CCC(=O)O)C(=O)N[C@@H](CCC(=O)O)C(=O)N[C@@H](Cc1ccc(O)cc1)C(=O)N[C@@H](CC(C)C)C(=O)O` [Bivalirudin, bivalirudin], in data set [2], the “absolute reduction in major bleeding” value is listed as 2.7% and the “relative reduction in major bleeding” value is 47%. Besides, the “doses not causing adverse effects” value in data set [3] is on record as “up to 7.5 mg/kg”.
